Source: patent US20230406831A1, “COMPOUNDS AND METHODS OF INHIBITING BACTERIAL CHAPERONIN SYSTEMS” (THE TRUSTEES OF INDIANA UNIVERSITY, priority 2020, published 2023)
Read-outs that look alike come from different tables or passages of the source.

What was measured:
S. aureus = S. aureus bacterial proliferation assay; format: cell-based; settings: cation adjusted BHI media, OD600 at 6-8 h; for EC50: Staphylococcus aureus, read-out: S. aureus Proliferation EC50
Procedure: Evaluation of compounds for inhibition of bacterial cell proliferation.
Growth Media: S. aureus bacteria were grown in Brain Heart Infusion (BHI) broth/agar (Becton, Dickinson and Company). All liquid cultures were grown in BHI media supplemented with 25 mg/L Ca^2+ and 12.5 mg/L Mg^2+ to mimic free physiological concentrations of these cations. A 10 mg/mL Ca^2+ stock solution was prepared by dissolving 3.68 g of CaCl2·2H^2O in 100 mL of deionized water, and a 10 mg/mL Mg^2+ stock solution was prepared by dissolving 8.36 g of […] in 100 mL deionized water. Both stock solutions were filter-sterilized using 0.2 μm pore size cellulose-acetate filters. 2.5 mL of the sterile 10 mg/mL Ca^2+ stock and 1.25 mL of the sterile 10 mg/mL Mg^2+ stock solutions were added per 1 L of autoclaved BHI medium to obtain 25 mg/L Ca^2+ and 12.5 mg/L Mg^2+ ions, respectively.
General Assay Protocol: Stock bacterial cultures were streaked onto BHI agar plates and grown overnight at 37° C. Fresh aliquots of broth were inoculated with single bacterial colonies and the cultures were grown overnight at 37° C. with shaking (240 rpm) in cation adjusted BHI media. The following morning, the overnight cultures were sub-cultured (1:5 dilution) into fresh aliquots of cation adjusted BHI media and grown at 37° C. for 1-2 hours with shaking. After 2 h, cultures were diluted into fresh media to achieve final OD600 readings of 0.017. Aliquots of these diluted cultures (30 μL) were added to clear, flat-bottom, 384-well polystyrene plates that were stamped with 0.5 μL of test compounds in 20 μL media. Compounds were evaluated in dose-response format where the inhibitor concentration range during the proliferation assay was 100 μM to 46 nM (3-fold dilution series). Plates were sealed with “Breathe Easy” oxygen permeable membranes (Diversified Biotech) and left to incubate at 37° C. without shaking (stagnant assay). OD600 nm readings were taken generally at 6-8 h, when bacteria had reached log-phase growth. A second set of baseline control plates were prepared analogously, but without any bacteria added, to correct for possible compound absorbance and/or precipitation. Plates were then read at 600 nm using a Molecular Devices SpectraMax Plus384 microplate reader. EC50 values for the test compounds were obtained by plotting the OD600 results in GraphPad Prism and analyzing by non-linear regression using the log(inhibitor) vs. response (variable slope) equation. For results, see Tables 1, 2, and 3.

GroEL/ES = biological target: T1, GroEL/ES (Escherichia coli, UniProt P0A6F5); assay: GroEL/ES-mediated dMDH refolding assay; format: biochemical, E. coli
T1 construct: made in house; host or cells: GroEL in E. coli DH5a; GroES in E. coli BL21 (DE3)
Procedure: (§1) Evaluation of compounds ability to inhibit GroEL/ES and HSP60/10-mediated dMDH refolding assays.
(§2) Reagent preparation: For these assays, four primary reagent stocks were prepared: 1) GroEL/ES-dMDH or HSP60/10-dMDH binary complex stock; 2) ATP initiation stock; 3) EDTA quench stock; 4) MDH enzymatic assay stock. Denatured MDH (dMDH) was prepared by 2-fold dilution of MDH (5 mg/ml, soluble pig heart MDH from Roche, product #10127248001) with denaturant buffer (7 M guanidine-HCl, 200 mM Tris, pH 7.4, and 50 mM DTT). MDH was completely denatured by incubating at room temperature for 45 min. The binary complex solutions were prepared by slowly adding the dMDH stock to a stirring stock with GroEL (or HSP60) in folding buffer (50 mM Tris-HCl, pH 7.4, 50 mM KCl, 10 mM MglC2, and 1 mM DTT), followed by addition of GroES (or HSP10). The binary complex stocks were prepared immediately prior to dispensing into the assay plates and had final protein concentrations of 83.3 nM GroEL (Mr 800 kDa) or HSP60 (Mr 400 kDa), 100 nM GroES or HSP10 (Mr 70 kDa), and 20 nM dMDH in folding buffer. For the ATP initiation stock, ATP solid was diluted into folding buffer to a final concentration of 2.5 mM. Quench solution contained 600 mM EDTA (pH 8.0). The MDH enzymatic assay stock consisted of 20 mM sodium mesoxalate and 2.4 mM NADH in reaction buffer (50 mM Tris-HCl, pH 7.4, 50 mM KC1, and 1 mM DTT).
(§3) Assay Protocol: First, 30 μL aliquots of the GroEL/ES-dMDH or HSP60/10-dMDH binary complex stocks were dispensed into clear, 384-well polystyrene plates. Next, 0.5 μL of the compound stocks (10 mM to 4.6 μM, 3-fold dilutions series in DMSO) were added by pin-transfer (V&P Scientific). The chaperonin-mediated refolding cycles were initiated by addition of 20 IA of ATP stock (reagent concentrations during refolding cycle: 50 nM GroEL or HSP60, 60 nM GroES or HSP10, 12 nM dMDH, 1 mM ATP, and compounds of 100 μM to 46 nM, 3-fold dilution series). The refolding reactions were incubated at 37° C. The incubation time was determined from refolding time-course control experiments until they reached ˜90% completion of refolding cycle — generally ˜20-40 min for GroEL/ES, and ˜40-60 min for HSP60/10). Next, the assay was quenched by addition of 10 μL of the EDTA to final concentration of 100 mM. […] A340 nm measurements were recorded at 0.5 minutes (start point) and at successive time points until the amount of NADH consumed reached ˜90% (end point, generally between 20-35 minutes). The differences between the start and end point A340 values were used to calculate the % inhibition of the GroEL/ES or HSP60/10 machinery by the compounds. IC50 values for the test compounds were obtained by plotting the % inhibition results in GraphPad Prism 6 and analyzing by non-linear regression using the log (inhibitor) vs. response (variable slope) equation. Results presented represent the averages of IC50 values obtained from at least quadriplicate (duplicate of duplicate) replicates. For results, see Tables 1, 2, and 3.

HSP60/10 = biological target: T2, HSP60/10 (Homo sapiens, UniProt P10809); assay: HSP60/10-mediated dMDH refolding assay; format: biochemical; settings: 37° C., 1 mM ATP, read-out: Biochemical Assay IC50 HSP60/10-dMDH Refolding
T2 construct: octa-Histidine (His8) tag, TEV-cleavable (N, cleaved yes); made in house; host or cells: HSP60 in Rosetta 2 (DE3) E. coli; HSP10 in Rosetta 2 (DE3) pLysS
Procedure: as §1, §2, §3

T2 sequence (P10809 27-573): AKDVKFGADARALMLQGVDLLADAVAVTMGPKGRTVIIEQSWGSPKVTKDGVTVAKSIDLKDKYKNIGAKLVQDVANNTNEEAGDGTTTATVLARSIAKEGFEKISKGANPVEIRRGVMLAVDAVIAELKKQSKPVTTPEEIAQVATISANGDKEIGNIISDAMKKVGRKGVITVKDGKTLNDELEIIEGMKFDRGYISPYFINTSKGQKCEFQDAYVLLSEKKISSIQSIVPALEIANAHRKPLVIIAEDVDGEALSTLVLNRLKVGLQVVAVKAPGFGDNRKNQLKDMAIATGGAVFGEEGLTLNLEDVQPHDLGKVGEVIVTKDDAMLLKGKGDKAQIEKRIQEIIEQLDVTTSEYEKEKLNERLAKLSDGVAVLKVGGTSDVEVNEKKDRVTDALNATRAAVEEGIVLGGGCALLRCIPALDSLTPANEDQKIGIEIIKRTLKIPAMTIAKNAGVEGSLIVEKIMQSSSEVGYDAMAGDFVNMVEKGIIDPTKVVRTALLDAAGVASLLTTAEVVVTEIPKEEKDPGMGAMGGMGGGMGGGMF
T1 sequence (P0A6F5 2-548): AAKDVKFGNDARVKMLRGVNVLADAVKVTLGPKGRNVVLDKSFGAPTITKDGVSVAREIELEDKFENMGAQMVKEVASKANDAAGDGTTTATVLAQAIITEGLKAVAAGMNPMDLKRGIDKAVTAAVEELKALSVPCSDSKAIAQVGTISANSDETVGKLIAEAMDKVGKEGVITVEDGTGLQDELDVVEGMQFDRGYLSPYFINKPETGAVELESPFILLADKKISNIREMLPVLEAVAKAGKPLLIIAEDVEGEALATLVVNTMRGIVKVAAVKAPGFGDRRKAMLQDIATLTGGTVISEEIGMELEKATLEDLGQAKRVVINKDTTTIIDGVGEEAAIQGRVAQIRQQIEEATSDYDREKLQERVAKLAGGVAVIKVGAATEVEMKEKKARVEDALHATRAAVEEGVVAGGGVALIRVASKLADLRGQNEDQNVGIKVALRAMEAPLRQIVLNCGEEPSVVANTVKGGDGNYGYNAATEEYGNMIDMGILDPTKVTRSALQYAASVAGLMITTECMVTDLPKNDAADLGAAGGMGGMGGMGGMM

SMILES	S. aureus Proliferation EC50 (S. aureus; Table 2)	IC50 (GroEL/ES)	IC50 (HSP60/10; Table 2)	EC50 (S. aureus; Table 3)	IC50 (HSP60/10; Table 3)	EC50 (S. aureus; Table 2)	EC50 (S. aureus; Table 1)	IC50 (HSP60/10; Table 1)
Cc1cc(C(C#N)c2ccc(Cl)cc2)c(Cl)cc1NC(=O)c1cccc(Cl)c1 (centres unmarked) [Compound 77, 3-chloro-N-(5-chloro-4-((4-chlorophenyl)(cyano)methyl)-2-methylphenyl)benzamide]	> 100 µM	63 µM	> 100 µM					
Cc1cc(C(C#N)c2ccc(Cl)cc2)c(Cl)cc1NC(=O)c1ccccc1 (centres unmarked) [Compound 82, N-(5-chloro-4-((4-chlorophenyl)(cyano)methyl)-2-methylphenyl)benzamide]	> 100 µM	74 µM	> 100 µM					
COc1ccc(Cl)cc1C(=O)Nc1ccc(Cc2ccccc2)cc1 [Compound 98, N-(4-benzylphenyl)-5-chloro-2-methoxybenzamide]		> 100 µM		> 100 µM	> 100 µM			
COc1ccc(Cl)cc1C(=O)Nc1ccc(Oc2ccccc2)cc1 [Compound 92, 5-chloro-2-methoxy-N-(4-phenoxyphenyl)benzamide]		> 100 µM		> 100 µM	> 100 µM			
Cc1cc(C(C#N)c2ccc(Cl)cc2)c(Cl)cc1NC(=O)c1cccc(O)c1 (centres unmarked) [Compound 65, N-(5-chloro-4-((4-chlorophenyl)(cyano)methyl)-2-methylphenyl)-3-hydroxybenzamide]	1.8 µM	55 µM	33 µM					
O=C(Nc1ccc(Sc2nc3ccccc3s2)cc1)c1cc(Cl)ccc1O [Compound 97, N-(4-(benzo[d]thiazol-2-ylthio)phenyl)-5-chloro-2-hydroxybenzamide]		24 µM		0.1 µM	59 µM			
Cc1cc(C(C#N)c2ccc(Cl)cc2)c(Cl)cc1NC(=O)c1cc(Br)cc(Br)c1O (centres unmarked) [Compound 46, 3,5-dibromo-N-(5-chloro-4-((4-chlorophenyl)(cyano)methyl)-2-methylphenyl)-2-hydroxybenzamide]		1.9 µM	2.4 µM			0.22 µM		
CC(=O)Nc1ccc(NC(=O)c2cc(Cl)ccc2O)cc1 [Compound 105, N-(4-acetamidophenyl)-5-chloro-2-hydroxybenzamide]		> 100 µM		> 100 µM	> 100 µM			
Cc1cc(C(C#N)c2ccc(Cl)cc2)c(Cl)cc1NC(=O)c1ccccc1Br (centres unmarked) [Compound 73, 2-bromo-N-(5-chloro-4-((4-chlorophenyl)(cyano)methyl)-2-methylphenyl)benzamide]	> 100 µM	53 µM	> 100 µM					
COc1ccc(Cl)cc1C(=O)Nc1ccc(CC#N)cc1 [Compound 110, 5-chloro-N-(4-(cyanomethyl)phenyl)-2-methoxybenzamide]		54 µM		> 100 µM	> 100 µM			
Cc1cc(C(C#N)c2ccc(Cl)cc2)c(Cl)cc1NC(=O)c1cc(Cl)cc(Cl)c1O (centres unmarked) [Compound 52, 3,5-dichloro-N-(5-chloro-4-((4-chlorophenyl)(cyano)methyl)-2-methylphenyl)-2-hydroxybenzamide]		3.7 µM	5.2 µM			0.27 µM		
Cc1cc(C(C#N)c2ccc(Cl)cc2)c(Cl)cc1NC(=O)c1ccc(O)cc1 (centres unmarked) [Compound 66, N-(5-chloro-4-((4-chlorophenyl)(cyano)methyl)-2-methylphenyl)-4-hydroxybenzamide]	4.9 µM	47 µM	35 µM					
COc1ccc(NC(=O)c2cc(Cl)ccc2O)cc1 [Compound 113, 5-chloro-2-hydroxy-N-(4-methoxyphenyl)benzamide]		> 100 µM		31 µM	> 100 µM			
CC(=O)Nc1cc(Cl)c(C(C#N)c2ccc(Cl)cc2)cc1C (centres unmarked) [Compound 83, N-(5-chloro-4-((4-chlorophenyl)(cyano)methyl)-2-methylphenyl)acetamide]	> 100 µM	> 100 µM	69 µM					
O=C(Nc1ccccc1)c1cc(Cl)ccc1O [Compound 117, 5-chloro-2-hydroxy-N-phenylbenzamide]		> 100 µM		2.2 µM	> 100 µM			
COc1ccc(Cl)cc1C(=O)Nc1ccc(C(C#N)c2ccccc2)cc1 (centres unmarked) [Compound 84, 5-chloro-N-(4-(cyano(phenyl)methyl)phenyl)-2-methoxybenzamide]		94 µM		> 100 µM	> 100 µM			
O=C(Nc1ccc(Cc2ccccc2)cc1)c1cc(Cl)ccc1O [Compound 99, N-(4-benzylphenyl)-5-chloro-2-hydroxybenzamide]		77 µM		> 100 µM	> 100 µM			
COc1ccc(Cl)cc1C(=O)Nc1ccc(CCc2ccccc2)cc1 [Compound 100, 5-chloro-2-methoxy-N-(4-phenethylphenyl)benzamide]		> 100 µM		> 100 µM	> 100 µM			
Cc1cc(C(C#N)c2ccc(Cl)cc2)c(Cl)cc1NC(=O)c1cccc(Br)c1O (centres unmarked) [Compound 48, 3-bromo-N-(5-chloro-4-((4-chlorophenyl)(cyano)methyl)-2-methylphenyl)-2-hydroxybenzamide]		12 µM	7.7 µM			0.58 µM		
Cc1cc(C(C#N)c2ccc(Cl)cc2)c(Cl)cc1NC(=O)c1cc(I)cc(I)c1O (centres unmarked) [Closantel, reference compound]							0.48 µM	3 µM
